Drawing on patent US20080119515A1, “Heterocyclic Kinase Inhibitors: Methods of Use and Synthesis” (priority 2003, published 2008), this text covers IC50 for 24 compounds.

The target in the assay is T1, ZAP-70 (Homo sapiens, UniProt P43403).
T1 sequence (P43403 1-619): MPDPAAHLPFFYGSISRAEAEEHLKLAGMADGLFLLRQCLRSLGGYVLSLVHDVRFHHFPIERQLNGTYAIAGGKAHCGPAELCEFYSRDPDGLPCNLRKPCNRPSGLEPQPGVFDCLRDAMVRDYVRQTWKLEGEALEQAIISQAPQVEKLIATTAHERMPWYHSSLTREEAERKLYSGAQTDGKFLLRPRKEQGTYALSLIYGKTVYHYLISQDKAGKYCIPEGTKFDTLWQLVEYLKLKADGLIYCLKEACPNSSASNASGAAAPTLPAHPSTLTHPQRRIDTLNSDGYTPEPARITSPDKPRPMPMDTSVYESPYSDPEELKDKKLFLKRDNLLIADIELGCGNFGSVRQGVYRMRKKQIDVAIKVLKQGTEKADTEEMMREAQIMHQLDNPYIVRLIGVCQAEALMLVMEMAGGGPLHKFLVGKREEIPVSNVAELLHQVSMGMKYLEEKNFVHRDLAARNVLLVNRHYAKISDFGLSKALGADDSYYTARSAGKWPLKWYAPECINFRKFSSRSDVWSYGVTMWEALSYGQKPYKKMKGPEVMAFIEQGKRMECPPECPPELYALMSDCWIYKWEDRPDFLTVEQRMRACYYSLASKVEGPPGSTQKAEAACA
Description: DELFIA assay (ZAP-70 kinase, phosphorylation of biotinylated poly(glu,tyr)). Type of assay: biochemical. Conditions: ZAP-70 DELFIA, class symbols; read-out: Activity (IC50 in vitro). The gist of the method: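 3.1 nM ZAP-70 pre-incubated 10 min at room temperature with compound ([…]) and 62.5 nM biotinylated poly(glu,tyr) in 62.5 mM Mops pH 7.0, 12.5 mM MgCl2, 12.5% glycerol, 6.25% DMSO (pre-incubation concentrations); ATP added from 5 mM stock, 30 min reaction, EDTA stop. Phosphorylation read by DELFIA europium anti-phosphotyrosine fluorescence (340/615).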

In the case of `CN(CCc1ccccc1)c1cc(C(=O)N2CCC[C@H]2CN2CCCC2)cc(/C=C/c2ccc(C(F)(F)F)cc2)n1` [Compound 366], the IC50 was in the range of 1 to 10 µM.
For the compound `CN(CCc1ccccc1)c1cc(C(=O)N2CCC[C@H]2CN2CCCC2)cc(-c2ccccc2)n1` [Compound 367], the IC50 is more than 10 µM.
`CN(CCc1ccccc1)c1cc(C(=O)N2CCC[C@H]2CN2CCCC2)cc(-c2ccc3c(c2)OCO3)n1` [Compound 368]: the IC50 is more than 10 µM.
Turning to `CN(CCc1ccccc1)c1cc(C(=O)N2CCC[C@H]2CN2CCCC2)cc(Cc2ccccc2)n1` [Compound 369], the IC50 is more than 10 µM.
The figure for `CN(CCc1ccccc1)c1cc(C(=O)N2CCC[C@H]2CN2CCCC2)cc(N2CCOCC2)n1` [Compound 370] is more than 10 µM; for `CN(CCc1ccccc1)c1cc(C(=O)N2CCC[C@H]2CN2CCCC2)cc(N(C)c2ccccc2)n1` [Compound 371] it is more than 10 µM; for `CN(CCc1ccccc1)c1cc(C(=O)N2CCC[C@H]2CN2CCCC2)cc(N(C)CCc2ccccc2)n1` [Compound 372] it is 1 to 10 µM.
As for `FC(F)(F)c1ccc(CNc2cc(C(=S)N3CCC[C@H]3CN3CCCC3)c3cc(-c4ccc5c(c4)OCO5)ccc3n2)cc1` [Compound 373], the figure is 1 to 10 µM.
For the compound `O=C(c1cc(NCc2ccc(Cl)cc2)nc2ccc(-c3ccc4c(c3)OCO4)cc12)N1CC[C@H]1CN1CCCC1` [Compound 374], the IC50 lay in the range of 1 to 10 µM.
As for `O=C(c1cc(NCc2ccc(C(F)(F)F)cc2)nc2ccc(-c3ccc4c(c3)OCO4)cc12)N1CCCC[C@H]1CN1CCCC1` [Compound 375], the figure is 1 to 10 µM; as for `O=C(c1cc(NCc2ccc(Cl)cc2)nc2ccc(-c3ccc4c(c3)OCO4)cc12)N1CCCC[C@H]1CN1CCCC1` [Compound 376], 1 to 10 µM; as for `N=C(NC1CC1)[C@@H]1CCCN1C(=O)c1cc(NCc2ccc(C(F)(F)F)cc2)nc2ccc(-c3ccc4c(c3)OCO4)cc12` [Compound 377], more than 10 µM.
As for `N=C(NC1CCC1)[C@@H]1CCCN1C(=O)c1cc(NCc2ccc(C(F)(F)F)cc2)nc2ccc(-c3ccc4c(c3)OCO4)cc12` [Compound 378], the IC50 was more than 10 µM.
As to `N=C(NC1CCCC1)[C@@H]1CCCN1C(=O)c1cc(NCc2ccc(C(F)(F)F)cc2)nc2ccc(-c3ccc4c(c3)OCO4)cc12` [Compound 379], the IC50 is more than 10 µM.
In the case of `N=C(NC1CCCCC1)[C@@H]1CCCN1C(=O)c1cc(NCc2ccc(C(F)(F)F)cc2)nc2ccc(-c3ccc4c(c3)OCO4)cc12` [Compound 380], the IC50 was more than 10 µM.
Consider `N=C([C@@H]1CCCN1C(=O)c1cc(NCc2ccc(C(F)(F)F)cc2)nc2ccc(-c3ccc4c(c3)OCO4)cc12)N1CCCC1` [Compound 381], for which the IC50 was more than 10 µM.
Turning to `N#C[C@@H]1CCCN1C(=O)c1cc(NCc2ccc(C(F)(F)F)cc2)nc2ccc(-c3ccc4c(c3)OCO4)cc12` [Compound 382], the IC50 was more than 10 µM.
The figure for `O=C(c1cc(NCc2ccc(C(F)(F)F)cc2)nc2c(-c3ccc4c(c3)OCO4)cc(Cl)cc12)N1CCC[C@H]1CN1CCCC1` [Compound 383] is more than 10 µM; for `O=C(c1cc(NCc2ccc(C(F)(F)F)cc2)nc2c(Cl)cc(-c3ccc4c(c3)OCO4)cc12)N1CCC[C@H]1CN1CCCC1` [Compound 384] it is less than 1 µM.
As for `O=C(Nc1cc(C(=O)N2CCC[C@H]2CN2CCCC2)c2cc(-c3ccc4c(c3)OCO4)ccc2n1)c1ccccc1` [Compound 385], the figure is 1 to 10 µM; as for `O=C(Nc1cc(C(=O)N2CCC[C@H]2CN2CCCC2)c2cc(-c3ccc4c(c3)OCO4)ccc2n1)c1ccc(Cl)cc1` [Compound 386], 1 to 10 µM; as for `N#Cc1ccc(-c2ccc3nc(/C=C/c4ccc(Cl)cc4)cc(C(=O)N4CCC[C@H]4CN4CCCC4)c3c2)cc1` [Compound 387], 1 to 10 µM.
The figure for `N#Cc1ccc(-c2ccc3nc(CCc4ccc(F)cc4)cc(C(=O)N4CCC[C@H]4CN4CCCC4)c3c2)cc1` [Compound 388] is 1 to 10 µM; for `N#Cc1ccc(-c2ccc3nc(CCc4ccc(C(F)(F)F)cc4)cc(C(=O)N4CCC[C@H]4CN4CCCC4)c3c2)cc1` [Compound 389] it is less than 1 µM.

Usually IC50 stands for the concentration that inhibits the measured activity by half.
